Three molecules from US20260176250A1, “TRIAZINONE DERIVATIVES AS NLRP3 INHIBITORS” (Hoffmann-La Roche Inc., priority 2022, published 2026) can be followed below.

Molecules are shown by their SMILES. Bounds are passed on as bounds.

The nature of data set [1]: Metabolic stability in human hepatocytes. The data set is classed as in vitro ADME. As to the method: Biological materials. Cryopreserved hepatocytes [mouse, rat, rabbit, monkey and human (male and female; mixed)] are obtained. Viability of hepatocytes after reconstitution is at least 80% throughout the study. Ready-to-use rat/human HepatoPac® cultures [long-term hepatocyte co-cultures; pooled (n=5 for male and n=5 for female for human)] with stromal mouse fibroblasts (negative control; pooled) with the plates for incubations, application medium and maintenance medium are acquired.
Metabolism by suspended hepatocytes. Primary pooled cryopreserved hepatocytes are reconstituted in pre-warmed William's E media containing 10% FCS, 0.05 mg/mL streptomycin and 50 U/mL penicillin and 0.4 mM L-glutamine; and 0.01 mg/mL gentamicin, 0.048 mg/mL hydrocortisone and 0.004 mg/mL insulin, to a final suspension density of 1×10^6 cells/mL. The incubation was performed fully automatically with Liquid Handling System (Tecan) equipped with a CO2 incubator with an orbital shaker. After the addition of a test compound at e.g. 1 μM to the wells (1×10^5 cells/well), the 96-well hepatocyte suspension culture plates are incubated in a 5% CO2 at 37° C. Samples are quenched by addition of acetonitrile (including an internal standard) to the incubation well at the designated time points up to 2 h.
Metabolism by HepatoPac®. […]
Samples are then centrifuged appropriately and the supernatant analyzed by LC-MS/MS. […]

Data set [2] concerns the target T1, NLRP3 (Homo sapiens, UniProt Q96P20). The experiment in a line: Human whole blood IL-1β release assay. It is filed as cell-based. The arrangement: Human whole blood in Li-heparin tubes was obtained from healthy donors; from tissue; host or cells: human whole blood from healthy donors. As to conditions: LPS 1 μg/ml, nigericin 10 μM, IL-1β AlphaLisa, read-out: Human whole blood IL-1ß Assay IC50. How it is done:
For systemic delivery, the ability to inhibit NLRP3 when the compounds are present within the bloodstream is of great importance. For this reason, the NLRP3 inhibitory activity of a number of compounds in human whole blood was investigated in accordance with the following protocol.
Human whole blood in Li-heparin tubes was obtained from healthy donors from a volunteer donor panel. • 1. Plate out 80 μl of whole blood containing 1 μg/ml of LPS in 96-well, clear bottom cell culture plate (Corning #3585) • 2. Add 10 μl compound (8 points half-log dilution with 10 μM top dose) or vehicle (DMSO 0.1% FAC) to the appropriate wells • 3. Incubate for 3 hours at 37° C., 5% CO2 • 4. Add 10 μl nigericin (Sigma #N7143) (10 μM FAC) to all wells • 5. Incubate for 1 hr at 37° C., 5% CO2 • 6. At the end of the incubation period, spin plates at 300xg for 5 mins to pellet cells and remove 20 μl of supernatant and add to 96-well v-bottom plates for IL-1β analysis (note: these plates containing the supernatants can be stored at −80° C. to be analysed at a later date) • 7. IL-1β was measured according to the manufacturer protocol (Perkin Elmer-AlphaLisa IL-1 Kit AL220F-5000) • 8. IC50 data is fitted to a non-linear regression equation (log inhibitor vs response-variable slope 4-parameters)

The target of data set [3] is T2, hERG cardiac potassium channel (Homo sapiens, UniProt Q12809).
T2 construct: host or cells: CHO crelox hERG cell line (Chinese hamster cells)
Description: hERG screening assay (automated patch clamp, CHO-hERG cells). It is filed as cell-based. The settings on record: CHO crelox hERG cell line (CHO cells that express hERG), whole-cell patch clamp, 35-37° C. The text has this:
In the drug development process of small molecules, one of the most frequent adverse side effects, leading to the failure of drugs, is the cardiac arrhythmias. Such failure is often related to the capacity of the drug to inhibit the human ether-à-go-go-related gene (hERG) cardiac potassium channel. Having no or low inhibition of the hERG cardiac potassium channel is therefore considered as beneficial.
The CHO crelox hERG cell line (ATCC reference Nr. PTA-6812, female Chinese hamster cells) was generated and validated at Roche. Ready-to-use frozen instant CHO-hERG cells were cryopreserved at Evotec (Germany) and used directly in the experiments.
The extracellular solution contains (in mM): NaCl 150; KCl 4; CaCl2) 1; MgCl2 1; HEPES 10; pH 7.2-7.4 with NaOH, osmolarity 290-330 mOsm. […]
The effects of a compound on hERG K+-currents parameters will be evaluated at 2 concentrations in at least 4 cells.
The hERG test is performed using automated patch clamp system SynchroPatch® 384 (Nanion Technologies GmbH, Germany). K+ currents are measured with the patch-voltage-clamp technique in the whole-cell configuration at 35-37° C. […]
The amplitudes of IKhERG were recorded in each concentration of drug and they were compared to the vehicle control values (taken as 100%) to define fractional blocks. […]

The target of data set [4] is T1, NLRP3. The experiment in a line: THP-1 cells pyroptosis assay. It is filed as cell-based. The settings on record: LPS 1 μg/ml, nigericin 5 μM, resazurin readout. As to the method:
THP-1 cells (ATCC #TIB-202) were grown in RPMI containing L-glutamine (Gibco #11835) supplemented with 1 mM sodium pyruvate (Sigma #S8636) and penicillin (100 units/ml)/streptomycin (0.1 mg/ml) (Sigma #P4333) in 10% Fetal Bovine Serum (FBS) (Sigma #F0804). The cells were routinely passaged and grown to confluency (˜10^6 cells/ml). On the day of the experiment, THP-1 cells were harvested and resuspended into RPMI medium (without FBS). The cells were then counted and viability (>90%) checked by Trypan blue (Sigma #T8154). Appropriate dilutions were made to give a concentration of 625,000 cells/ml. To this diluted cell solution was added LPS (Sigma #L4524) to give a 1 μg/ml Final Assay Concentration (FAC). 40 μl of the final preparation was aliquoted into each well of a 96-well plate. The plate thus prepared was used for compound screening.
The following method step-by-step assay was followed for compound screening. • 1. Seed THP-1 cells (25,000 cells/well) containing 1.0 μg/ml LPS in 40 μl of RPMI medium (without FBS) in 96-well, black walled, clear bottom cell culture plates coated with poly-D-lysine (VWR #734-0317) • 2. Add 5 μl compound (8 points half-log dilution, with 10 μM top dose) or vehicle (DMSO 0.1% FAC) to the appropriate wells • 3. Incubate for 3 hours at 37° C., 5% CO2 • 4. Add 5 μl nigericin (Sigma #N7143) (FAC 5 μM) to all wells • 5. Incubate for 1 hr at 37° C., 5% CO2 • 6. At the end of the incubation period, spin plates at 300xg for 3 mins and remove supernatant • 7. Then add 50 μl of resazurin (Sigma #R7017) (FAC 100 μM resazurin in RPMI medium without FBS) and incubate plates for a further 1-2 hours at 37° C. and 5% CO2 • 8. Plates were read in an Envision reader at Ex 560 nm and Em 590 nm • 9. IC50 data is fitted to a non-linear regression equation (log inhibitor vs response-variable slope 4-parameters)

T1 sequence (Q96P20 whole entry): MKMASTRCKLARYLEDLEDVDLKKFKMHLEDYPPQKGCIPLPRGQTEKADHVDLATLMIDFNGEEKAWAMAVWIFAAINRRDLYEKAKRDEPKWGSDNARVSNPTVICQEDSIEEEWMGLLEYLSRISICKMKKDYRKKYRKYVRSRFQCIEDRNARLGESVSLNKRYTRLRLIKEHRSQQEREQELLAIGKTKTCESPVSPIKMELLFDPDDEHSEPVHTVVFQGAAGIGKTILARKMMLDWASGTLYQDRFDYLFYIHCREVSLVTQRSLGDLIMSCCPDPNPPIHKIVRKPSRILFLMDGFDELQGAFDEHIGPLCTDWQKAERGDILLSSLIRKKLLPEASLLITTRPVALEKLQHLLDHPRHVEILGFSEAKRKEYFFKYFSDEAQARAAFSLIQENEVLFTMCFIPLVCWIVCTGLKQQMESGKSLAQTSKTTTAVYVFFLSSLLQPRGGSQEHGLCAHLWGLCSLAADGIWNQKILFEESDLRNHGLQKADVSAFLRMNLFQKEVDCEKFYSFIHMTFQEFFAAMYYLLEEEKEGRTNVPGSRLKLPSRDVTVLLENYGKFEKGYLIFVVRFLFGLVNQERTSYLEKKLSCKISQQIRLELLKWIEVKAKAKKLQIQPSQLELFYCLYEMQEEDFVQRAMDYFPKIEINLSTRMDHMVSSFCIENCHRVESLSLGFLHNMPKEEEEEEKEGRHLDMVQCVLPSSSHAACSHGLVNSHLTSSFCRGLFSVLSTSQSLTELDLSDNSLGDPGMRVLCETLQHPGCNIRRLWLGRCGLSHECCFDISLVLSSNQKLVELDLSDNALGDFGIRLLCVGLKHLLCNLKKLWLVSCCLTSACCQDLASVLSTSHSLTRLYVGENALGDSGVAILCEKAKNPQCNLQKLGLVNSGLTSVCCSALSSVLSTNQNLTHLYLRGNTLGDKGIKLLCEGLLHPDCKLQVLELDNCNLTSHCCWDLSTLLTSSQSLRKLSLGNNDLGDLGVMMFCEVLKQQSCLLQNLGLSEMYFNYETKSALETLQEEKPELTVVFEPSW
T2 sequence (Q12809 whole entry): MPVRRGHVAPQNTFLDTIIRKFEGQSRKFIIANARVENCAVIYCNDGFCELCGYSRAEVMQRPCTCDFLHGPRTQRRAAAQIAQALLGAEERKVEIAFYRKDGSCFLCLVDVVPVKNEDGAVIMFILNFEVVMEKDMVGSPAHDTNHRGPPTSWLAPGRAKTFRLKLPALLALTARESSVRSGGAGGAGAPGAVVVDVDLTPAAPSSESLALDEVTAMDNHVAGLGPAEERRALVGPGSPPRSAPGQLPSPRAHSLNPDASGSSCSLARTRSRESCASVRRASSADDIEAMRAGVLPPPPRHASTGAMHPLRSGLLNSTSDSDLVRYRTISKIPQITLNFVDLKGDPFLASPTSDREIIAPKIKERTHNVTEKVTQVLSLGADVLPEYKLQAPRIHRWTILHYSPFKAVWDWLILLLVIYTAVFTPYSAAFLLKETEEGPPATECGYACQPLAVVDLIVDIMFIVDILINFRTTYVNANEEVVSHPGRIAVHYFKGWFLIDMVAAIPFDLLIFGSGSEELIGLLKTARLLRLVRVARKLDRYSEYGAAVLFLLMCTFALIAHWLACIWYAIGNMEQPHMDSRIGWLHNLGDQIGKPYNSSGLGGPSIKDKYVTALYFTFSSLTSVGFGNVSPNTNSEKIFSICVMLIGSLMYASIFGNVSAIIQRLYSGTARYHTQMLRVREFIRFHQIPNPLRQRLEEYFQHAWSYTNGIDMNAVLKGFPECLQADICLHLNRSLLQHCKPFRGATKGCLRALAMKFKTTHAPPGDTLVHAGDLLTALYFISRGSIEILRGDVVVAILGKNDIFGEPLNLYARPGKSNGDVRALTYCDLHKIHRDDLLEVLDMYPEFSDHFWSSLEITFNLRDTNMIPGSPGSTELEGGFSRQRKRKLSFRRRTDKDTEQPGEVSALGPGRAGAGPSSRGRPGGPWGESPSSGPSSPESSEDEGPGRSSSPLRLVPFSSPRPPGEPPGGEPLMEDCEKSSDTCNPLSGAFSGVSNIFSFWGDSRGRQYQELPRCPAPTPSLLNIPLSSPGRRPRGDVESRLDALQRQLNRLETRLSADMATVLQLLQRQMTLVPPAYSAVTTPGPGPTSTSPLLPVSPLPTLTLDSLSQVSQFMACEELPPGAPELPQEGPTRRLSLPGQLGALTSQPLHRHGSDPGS

For `CCN1CCC[C@@H](Nc2nnc(-c3ccc4c(c3O)CCC4)n(C)c2=O)C1` [Example 1, 6-[[(3R)-1-Ethyl-3-piperidyl]amino]-3-(4-hydroxyindan-5-yl)-4-methyl-1,2,4-triazin-5-one], the “Clint at 1 μM” value in data set [1] is recorded as below 0.2 μl/min/10E6 cells. In addition, the IC50 at NLRP3 [2] stood at 8 nM; at NLRP3 [4], 1.5 nM. The molecule further came in with an IC20 in data set [3] above 10000 nM.
As to `CCN1CCC[C@@H](Nc2nnc(-c3ccc4c(c3O)CC4)n(C)c2=O)C1` [Example 2], the IC50 at NLRP3 [2] was 10 nM; against NLRP3 [4], 5.8 nM.
`CCN1CCC[C@@H](N(C)c2nnc(-c3ccc4c(c3O)CCC4)n(C)c2=O)C1` [Example 3, 6-[[(3R)-1-Ethyl-3-piperidyl]-methyl-amino]-3-(4-hydroxyindan-5-yl)-4-methyl-1,2,4-triazin-5-one]: the IC50 on NLRP3 [2] came to 26 nM; at NLRP3 [4], 13 nM.
